The subject of data set [1] is Hyaluronidase 2 (HYAL2). The data set can be described thus: Gene expression study (RNA sequencing), HYAL2 expression in keratinocytes. It is filed as cell-based. The conditions noted are these: human keratinocytes, 24 hours of compound exposure, FIG. 3. On the procedure:
(§1) Cell Lines. Human adult dermal fibroblast and keratinocyte cell lines were treated with 11 different compound treatments (plus DMSO control as treatment #12). Primary fibroblasts, keratinocytes sourced from ZenBio. Primary cells were plated in cell specific media at 5K or 10K cells per cm^2 as per ZenBio instructions. Cells were plated in 48 well plates (Greiner) in triplicate, one cell line per plate. Media volume was 500 ul per well. Outer two columns of wells were not used. All rows were used. Cells were cultured for 2 days in 37° C. 5% CO2 incubator. After 48 hours all the cell cultures were uniform and appeared healthy, no appreciable number of floating dead cells or evidence of vacuolization of cells that might indicate apoptotic or dying cells.
(§2) Compounds. Stocks of compounds 1 through 8 on the list below were prepared in PBS at 100× the concentration indicated in red type. […] This stock was 100× of final concentration. A 20 mg/ml stock of compound 10 (CBD) was prepared in DMSO. […] This stock was 200× of final concentration.
(§3) Dosing. After 48 hours of attachment culture, fibroblasts and keratinocytes were treated with the test compounds. […]
(§4) RNA Lysate preparation. […] All samples were shipped frozen on dry ice to MedGenome for RNA extraction, library construction and sequencing to 25M paired end 100 bp reads per sample. […]

The test system of data set [2] is Hyaluronic Acid Synthase 2 (HAS2). The experiment in a line: Gene expression study (RNA sequencing), HAS2 expression in keratinocytes. It is filed as cell-based. The conditions noted are these: human keratinocytes, 24 hours of compound exposure, FIG. 2. On the procedure: as §1, §2, §3, §4
The nature of data set [3]: Preparation of compound stocks in DMSO (dissolution observed). It is filed as physicochemical. On the procedure:
as §2

In data set [4] the test system is human fibroblast cells. The experiment in a line: HA production assessment, SDS-PAGE of fibroblast supernatants. It is filed as cell-based. To be noted: Experiment 2, primary adult human dermal fibroblasts, 72 hours, octapeptide 100 ug/mL, SymDecanox 250 ug/mL, others 500 ug/mL, FIG. 6. On the procedure: In a second experiment, HA production was also assessed with the test compounds below. Briefly, primary adult human dermal fibroblast cells were cultured until near confluent in 6 well plates. The cells were treated with the compounds and concentrations indicated to the right. After 72 hours, 100 μL of media were collected from each treatment condition and was concentrated in a SpeedVac concentrator to a final volume of ~10 uL.
All 10 μL of the supernatants were loaded onto an acrylamide gel (NuPAGE 4-12% Bis-Tris Protein Gel) and run at 200V for 3 hours. The gel was stained to detect the presence of HA. Data is seen in FIG. 6. […] Lane 11 is the negative control, representing the untreated cells. This band represents the cells constitutive level of HA. Treating the cells with all the indicated compounds (lanes 1-10) produced an increased level of high molecular weight HA. […]

Turning to “Hexapeptide-11: hexapeptide test agent; FVAPFP (SEQ ID NO: 19) is printed as a hexapeptide sequence, not tied explicitly”, the “Hyaluronidase 2 (HYAL2) expression in keratinocytes” value in data set [1] is “potent downregulation”. Also, the “HAS2 expression in keratinocytes” value in data set [2] is listed as “excellent upregulation”.

Regarding `C=C(C)[C@@H]1CCC(C)=C[C@H]1c1c(O)cc(CCCCC)cc1O` [CBD], the “Dissolution of stock in DMSO” value in data set [3] (20 mg/ml stock in DMSO) is “slightly cloudy”.

As to `CCCCCCCC(=O)CCc1ccc(O)c(OC)c1` [SymDecanox™, hydroxymethoxyphenyl decanone], the “Level of high molecular weight HA (band on gel)” value (“Level” below) in data set [4] was “secrete high molecular weight HA”.

With “tetradecyl-diaminobutyroylvalyldiaminobutyric urea trifluoroacetate [SynHycan]”, the “Level” value in data set [4] is given as “secrete high molecular weight HA”.

Consider phosphatidylserine, for which, in data set [4], the “Level” value is given as “secrete high molecular weight HA”. The “Dissolution of stock in DMSO” value in data set [3] (50 mg/ml stock in DMSO, extensive vortexing and warming) is “did not fully go into solution”.

Values taken from US12721801B2, “Compositions and methods relating to stimulation of hyaluronic acid” (Alastin Skincare, Inc., priority 2020, dated 2026).
